Results published in patent US20220242846A1, “ISOINDOLINONE COMPOUNDS” (Monte Rosa Therapeutics AG, priority 2019, published 2022).
Read-outs that look alike come from different tables or passages of the source.

Experiments:
[1] = biological target: T1, Full length wild-type cereblon CRBN (Homo sapiens, UniProt Q96SW2); assay: Fluorescence polarization (FP) assay indicating cereblon binding; settings: CRBN 80.0 nM, fluorescent probe 5 nM, FP measured after 12 hours; read-out: rFP IC50
T1 construct: Full length wild-type cereblon CRBN (80.0 nM, 10 μL) was incubated in assay buffer
Text: Protocol for Fluorescent Polarization Assay
Compound activity was monitored in a fluorescence polarization (FP) homogeneous assay using 1-[5-({2-[2-(2-{[2-(2,6-dioxopiperidin-3-yl)-1,3-dioxo-2,3-dihydro-1H-isoindol-4-yl]oxy}acetamido)ethoxy]ethyl}carbamoyl)pentyl]-3,3-dimethyl-2-[(1E,3E)-5-[(2E)-1,3,3-trimethyl-5-sulfo-2,3-dihydro-1H-indol-2-ylidene]penta-1,3-dien-1-yl]-3H-indol-1-ium-5-sulfonate as a fluorescent probe. Unless otherwise stated, all reagents were purchased from Sigma Aldrich. Enzymatic reactions were conducted in Perkin-Elmer Black 384 well ProxiPlate Plus (catalogue no. 6008269) in 10 μL total volume. Full length wild-type cereblon CRBN (80.0 nM, 10 μL) was incubated in assay buffer containing 20 mM HEPES (pH 8.0), […], 0.5 mM TCEP and 0.05% Tween 20 in the presence or absence of compound (300 nL). Inhibitors were stored as 10 mM DMSO stocks in an inert environment (low humidity, dark, low oxygen, room temperature) using the Storage Pod System. Compounds and DMSO were dispensed using the Echo E5XX (Labcyte Inc. USA) to give concentrations from 300 to 0.937 or 3000 to 9.3 nM in a 12 data point curve. […] Following incubation at room temperature for […], the assay was initiated by dispensing the probe to a final concentration of 5 nM (2.5 nL of a 20 μM stock) using the Echo E5XX. FP was measured after a period of 12 hours using a Pherastar plate reader (BMG Labtech, Germany) exciting at 590 nm and measuring the amount of parallel and perpendicular light at 675 nm. The FP signal was subsequently normalized to the no-compound control (i.e., DMSO). Analysis and IC50 values were derived using Dotmatics (Dotmatics UK) software.

GSPT1 = GSPT1 (Homo sapiens, UniProt P15170+Q96SW2); assay: Immunofluorescence assay for GSPT1 degradation in CAL-51 cells; format: cell-based; design: CAL-51 cells were purchased from DSMZ (cat. Number ACC302); endogenous in cells; host or cells: CAL-51 (DSMZ ACC302); settings: compound treatment 6 hours
Experimental: CAL-51 cells were purchased from DSMZ (cat. Number ACC302), sub-cultured in 90% Dulbecco's MEM (4.5 g/L glucose, Gibco 11965) +10% heat inactivated FBS (BioConcept, 2-01F136I) and incubated at 37° C., 5% CO2. For the assay, imaging microtiterplate Cell Carrier 96 Ultra (Perkin Elmer 6055302) were pre-coated with Fibronectin (Sigma F085, 300 at 0.2 μg/ml) in PBS (1000, Gibco 14190) for 45 min at room temperature, rinsed with PBS and CAL-51 cells (30K cells/well) were plated and let to adhere overnight. Cells were treated with compounds typically using a serial dilution ranging from 30 μM to 0.1 nM for 6 hours. Compounds were stored at 10 mM DMSO stocks. Vehicle (DMSO), positive (CC-885, 10 μM) and rescue controls (positive control plus 0.2 μM bortezomib) were also included at this stage. Cells were subsequently rinsed with PBS and fixed in 10% Formalin solution (50 μl, Sigma HT5011)) for 20 mins at room temperature. Following three consecutive PBS washes (100 μl), cells were permeabilized in 0.1% Triton X-100 in PBS (Sigma 93443, 50 μl) for 15 mins at room temperature. Following three further PBS washes, 50 μl blocking buffer (1% BSA, Sigma A4503, in PBS) was added for 45 min for signal-to-noise reduction. Primary antibody (human GSPT1, Sigma HPA052488) was diluted in blocking buffer (dil. 1/300, 35 μl/well) and incubated with the cells overnight at 4° C. After three PBS washes, Alexa-fluor 488 coupled secondary antibodies (Invitrogen, A32731, dil. 1/1000), Alexa-fluor 647-Phalloïdin (Invitrogen, A22287, dil. 1/200) and DAPI (Thermo, #62248, dil.1/1000) were diluted in blocking buffer and incubated with the samples for 2 hours at room temperature. After three final PBS washes, samples were conserved in 1000 PBS in the dark, until measurement. Image acquisition was performed on the Operetta High-Content Imager (Perkin-Elmer). Fluorescence intensity of Alexa-Fluor 488 (GSPT1), Alexa-Fluor 647 (Actin) and DAPI (Nucleus) were measured. For the determination of GSPT1 DC50 values, a custom algorithm implemented in the PerkinElmer image analysis software Harmony-Acapella® was developed. After user-defined setting of adjustment parameters, the analysis was run identically without human intervention for all image fields. DAPI staining of the nuclei was used to determine the location of cells using standard nuclei detection modules. Segmentation artifacts were removed by threshold-based filters for area, roundness and intensity. The outline of the cells was determined analogously from the sum of the normalized, smoothed DAPI and Actin channel, starting from each nucleus. The Alexa-Fluor 488 (GSPT1) signal intensity in each cell was finally measured, in order to obtain a Mean intensity per cell. GSPT1 degradation (DC50) was calculated after normalization to controls and data import in CDD vault Database, using non-linear regression. Activity for GSPT1 Degradation Table 3 assigns each compound a code indicating the ability for GSPT1 degradation: A, B or C. According to the code, A represents a DC50 value of ≤100 nM, B represents a DC50 value >100 nM and ≤300 nM and C represents a DC50 value of >300 nM.

[2] = read-out: Code: activity for GSPT1 degradation (DC50)
[3] = GSPT1 degradation, read-out: DC50

T1 sequence (Q96SW2 whole entry): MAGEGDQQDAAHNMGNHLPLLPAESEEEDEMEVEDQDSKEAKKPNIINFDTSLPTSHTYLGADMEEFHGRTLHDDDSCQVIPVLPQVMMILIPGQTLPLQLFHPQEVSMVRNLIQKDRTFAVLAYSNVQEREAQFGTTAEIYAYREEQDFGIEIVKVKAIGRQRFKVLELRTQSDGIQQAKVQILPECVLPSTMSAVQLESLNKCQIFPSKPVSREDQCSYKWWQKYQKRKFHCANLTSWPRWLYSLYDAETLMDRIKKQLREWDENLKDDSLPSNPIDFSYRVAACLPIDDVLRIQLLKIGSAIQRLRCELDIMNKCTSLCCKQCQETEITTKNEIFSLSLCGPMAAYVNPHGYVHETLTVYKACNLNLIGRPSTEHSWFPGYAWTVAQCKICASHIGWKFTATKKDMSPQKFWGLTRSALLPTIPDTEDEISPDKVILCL
GSPT1, sequence (P15170 whole entry): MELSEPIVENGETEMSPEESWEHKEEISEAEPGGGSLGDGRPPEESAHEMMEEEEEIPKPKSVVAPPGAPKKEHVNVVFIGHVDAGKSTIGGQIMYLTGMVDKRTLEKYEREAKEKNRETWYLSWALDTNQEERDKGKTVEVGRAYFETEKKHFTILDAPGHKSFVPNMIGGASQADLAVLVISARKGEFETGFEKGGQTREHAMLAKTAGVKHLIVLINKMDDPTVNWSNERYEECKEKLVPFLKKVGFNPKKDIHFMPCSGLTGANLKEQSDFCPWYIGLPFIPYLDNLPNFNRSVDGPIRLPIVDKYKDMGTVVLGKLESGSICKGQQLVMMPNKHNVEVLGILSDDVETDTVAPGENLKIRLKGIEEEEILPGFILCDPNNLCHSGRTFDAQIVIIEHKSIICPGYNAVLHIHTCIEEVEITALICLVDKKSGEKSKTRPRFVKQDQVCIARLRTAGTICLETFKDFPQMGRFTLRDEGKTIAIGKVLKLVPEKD
GSPT1, sequence (Q96SW2 whole entry): as the sequence (Q96SW2 whole entry) above
GSPT1, sequence (Q16531 2-1140 partner limits assumed): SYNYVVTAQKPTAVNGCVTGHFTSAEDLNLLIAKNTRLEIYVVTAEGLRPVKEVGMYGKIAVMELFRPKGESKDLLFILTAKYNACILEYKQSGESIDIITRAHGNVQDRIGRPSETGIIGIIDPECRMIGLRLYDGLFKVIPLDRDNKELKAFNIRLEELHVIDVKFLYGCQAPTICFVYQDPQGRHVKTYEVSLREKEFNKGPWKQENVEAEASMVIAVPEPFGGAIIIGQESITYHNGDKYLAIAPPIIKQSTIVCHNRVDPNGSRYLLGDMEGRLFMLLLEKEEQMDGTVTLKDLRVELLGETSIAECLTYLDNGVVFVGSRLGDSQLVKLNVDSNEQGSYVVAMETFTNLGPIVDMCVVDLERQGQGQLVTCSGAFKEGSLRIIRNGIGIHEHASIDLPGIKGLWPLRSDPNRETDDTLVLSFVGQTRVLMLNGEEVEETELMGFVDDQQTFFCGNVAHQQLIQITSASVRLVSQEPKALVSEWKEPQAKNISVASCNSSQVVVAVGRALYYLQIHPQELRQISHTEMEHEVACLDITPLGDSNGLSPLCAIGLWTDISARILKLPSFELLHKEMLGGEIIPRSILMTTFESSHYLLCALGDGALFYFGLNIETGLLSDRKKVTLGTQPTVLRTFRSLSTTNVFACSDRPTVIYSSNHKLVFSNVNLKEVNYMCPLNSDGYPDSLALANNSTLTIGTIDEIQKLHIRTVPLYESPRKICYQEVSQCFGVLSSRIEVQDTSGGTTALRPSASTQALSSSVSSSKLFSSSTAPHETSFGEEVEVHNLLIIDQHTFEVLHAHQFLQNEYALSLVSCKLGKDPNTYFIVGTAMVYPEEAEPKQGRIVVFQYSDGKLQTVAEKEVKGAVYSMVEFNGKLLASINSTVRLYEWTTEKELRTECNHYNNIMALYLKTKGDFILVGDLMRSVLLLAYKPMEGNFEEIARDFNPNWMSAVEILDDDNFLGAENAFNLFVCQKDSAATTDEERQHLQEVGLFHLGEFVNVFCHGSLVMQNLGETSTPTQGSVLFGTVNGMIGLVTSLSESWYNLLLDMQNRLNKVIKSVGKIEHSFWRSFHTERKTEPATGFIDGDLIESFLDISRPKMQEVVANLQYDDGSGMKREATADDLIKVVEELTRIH

| SMILES | IC50 [1] [nM] | DC50 (GSPT1; [2]) [nM] | DC50 (GSPT1; [3]) [nM] |
| --- | --- | --- | --- |
| O=C1CCC(N2Cc3ccc(CNC(=O)Nc4cccc(OC5CCNCC5)c4)cc3C2=O)C(=O)N1 (stereo not shown) [Compound 111] | 240 | > 300 | – |
| Cc1c(CN2CCOCC2)cc(NC(=O)NCc2ccc3c(c2)C(=O)N(C2CCC(=O)NC2=O)C3)cc1OC(F)(F)F (stereo not shown) [Compound 151] | 883 | ≤ 100 | – |
| O=C1CCC(N2Cc3ccc(CNC(=O)Nc4cccc(OC(F)(F)F)c4)cc3C2=O)C(=O)N1 (stereo not shown) [Compound 90] | 471 | ≤ 100 | – |
| Cn1ccc(NC(=O)NCc2ccc3c(c2)C(=O)N(C2CCC(=O)NC2=O)C3)n1 (stereo not shown) [Compound 88] | 351 | > 300 | – |
| O=C1CCC(N2Cc3ccc(CNC(=O)Nc4ccccn4)cc3C2=O)C(=O)N1 (stereo not shown) [Compound 123] | 570 | > 300 | – |
| Cc1c(Cl)cc(NC(=O)NCc2ccc3c(c2)C(=O)N(C2CCC(=O)NC2=O)C3)cc1CN1CCN(C)CC1 (stereo not shown) [Compound 124] | 198 | > 300 | – |
| Cc1cc(NC(=O)NCc2ccc3c(c2)C(=O)N(C2CCC(=O)NC2=O)C3)cc(C)n1 (stereo not shown) [Compound 158] | 1440 | > 300 | – |
| Cc1c(Cl)cc(NC(=O)NCc2ccc3c(c2)C(=O)N(C2CCC(=O)NC2=O)C3)cc1OC(F)(F)F (stereo not shown) [Compound 143] | 3590 | 100 to 300 | – |
| O=C1CCC(N2Cc3ccc(CNC(=O)Nc4ccc5c(c4)OCO5)cc3C2=O)C(=O)N1 (stereo not shown) [Compound 153] | 1840 | > 300 | – |
| O=C1CCC(N2Cc3ccc(CNC(=O)Nc4cccc(-c5ncc[nH]5)c4)cc3C2=O)C(=O)N1 (stereo not shown) [Compound 112] | 270 | > 300 | – |
| Cc1c(Cl)cc(NC(=O)NCc2ccc3c(c2)C(=O)N(C2CCC(=O)NC2=O)C3)cc1C[C@H]1CO[C@H](C)OC1 (stereo partly shown) [Compound 141] | 352 | ≤ 100 | – |
| COCCOc1cc(NC(=O)NCc2ccc3c(c2)C(=O)N(C2CCC(=O)NC2=O)C3)cc(Cl)c1C (stereo not shown) [Compound 125] | 596 | ≤ 100 | – |
| Cc1nccn1-c1cccc(NC(=O)NCc2ccc3c(c2)C(=O)N(C2CCC(=O)NC2=O)C3)c1 (stereo not shown) [Compound 113] | 283 | > 300 | – |
| O=C1CCC(N2Cc3ccc(CNC(=O)Nc4cc(Cl)cc(CN5CCOCC5)c4)cc3C2=O)C(=O)N1 (stereo not shown) [Compound 119] | 408 | ≤ 100 | – |
| O=C1CCC(N2Cc3ccc(CNC(=O)Nc4ccncc4)cc3C2=O)C(=O)N1 (stereo not shown) [Compound 104] | 234 | > 300 | – |
| O=C1CCC(N2Cc3ccc(CNC(=O)Nc4cccc(Oc5ccccn5)c4)cc3C2=O)C(=O)N1 (stereo not shown) [Compound 121] | 243 | 100 to 300 | – |
| CN1CCC(Oc2cc(Cl)cc(NC(=O)NCc3ccc4c(c3)C(=O)N(C3CCC(=O)NC3=O)C4)c2)C1 (stereo not shown) [Compound 162] | 699 | > 300 | – |
| Cc1ccc(NC(=O)NCc2ccc3c(c2)C(=O)N(C2CCC(=O)NC2=O)C3)cc1OC(F)(F)F (stereo not shown) [Compound 144] | 544 | ≤ 100 | – |
| Cc1ccc(NC(=O)NCc2ccc3c(c2)C(=O)N(C2CCC(=O)NC2=O)C3)nc1Cl (stereo not shown) [Compound 137] | 1140 | > 300 | – |

| SMILES | IC50 [1] [nM] | DC50 (GSPT1; [2]) [nM] | DC50 (GSPT1; [3]) [nM] |
| --- | --- | --- | --- |
| Cc1cc(C)c(NC(=O)NCc2ccc3c(c2)C(=O)N(C2CCC(=O)NC2=O)C3)c(Cl)c1Cl (stereo not shown) [Compound 100] | 178 | > 300 | – |
| O=C1CCC(N2Cc3ccc(CNC(=O)Nc4cccc(C(F)F)c4)cc3C2=O)C(=O)N1 (stereo not shown) [Compound 106] | 353 | 100 to 300 | 188 |
| O=C1CCC(N2Cc3ccc(CNC(=O)Nc4cc[nH]n4)cc3C2=O)C(=O)N1 (stereo not shown) [Compound 102] | 389 | > 300 | – |
| CCc1cnc(NC(=O)NCc2ccc3c(c2)C(=O)N(C2CCC(=O)NC2=O)C3)s1 (stereo not shown) [Compound 148] | 169 | > 300 | – |
| O=C1CCC(N2Cc3ccc(CNC(=O)Nc4cccc(OC(=O)CN5CCOCC5)c4)cc3C2=O)C(=O)N1 (stereo not shown) [Compound 110] | 302 | > 300 | – |
| O=C1CCC(N2Cc3ccc(CNC(=O)Nc4ccsc4)cc3C2=O)C(=O)N1 (stereo not shown) [Compound 84] | 348 | > 300 | – |
| O=C1CCC(N2Cc3ccc(CNC(=O)Nc4ccon4)cc3C2=O)C(=O)N1 (stereo not shown) [Compound 94] | 408 | > 300 | – |
| O=C1CCC(N2Cc3ccc(CNC(=O)Nc4cc[nH]c4)cc3C2=O)C(=O)N1 (stereo not shown) [Compound 98] | 404 | > 300 | – |
| Cc1ccc(NC(=O)NCc2ccc3c(c2)C(=O)N(C2CCC(=O)NC2=O)C3)cc1CN1CCOCC1 (stereo not shown) [Compound 101, 1-((2-(2,6-dioxopiperidin-3-yl)-3-oxoisoindolin-5-yl)methyl)-3-(4-methyl-3-(morpholinomethyl)phenyl)urea] | 325 | 100 to 300 | 224 |
| Cc1cc(NC(=O)NCc2ccc3c(c2)C(=O)N(C2CCC(=O)NC2=O)C3)no1 (stereo not shown) [Compound 97] | 301 | > 300 | – |
| Cc1c(Cl)cc(NC(=O)NCc2ccc3c(c2)C(=O)N(C2CCC(=O)NC2=O)C3)cc1OCCN(C)C (stereo not shown) [Compound 134] | 394 | > 300 | – |
| Cc1cnc(NC(=O)NCc2ccc3c(c2)C(=O)N(C2CCC(=O)NC2=O)C3)s1 (stereo not shown) [Compound 147] | 253 | > 300 | – |
| CN(C)CC(=O)Oc1cccc(NC(=O)NCc2ccc3c(c2)C(=O)N(C2CCC(=O)NC2=O)C3)c1 (stereo not shown) [Compound 136] | 425 | > 300 | – |
| Cc1ccc(NC(=O)NCc2ccc3c(c2)C(=O)N(C2CCC(=O)NC2=O)C3)c(C)c1Cl (stereo not shown) [Compound 93] | 248 | > 300 | – |
| Cc1c(Cl)cc(NC(=O)NCc2ccc3c(c2)C(=O)N(C2CCC(=O)NC2=O)C3)cc1CC(=O)O (stereo not shown) [Compound 120] | 453 | > 300 | – |
| Cc1c(Cl)cc(NC(=O)NCc2ccc3c(c2)C(=O)N(C2CCC(=O)NC2=O)C3)cc1OCCCN(C)C (stereo not shown) [Compound 117] | 152 | > 300 | – |
| CN1CCC(COc2cc(Cl)cc(NC(=O)NCc3ccc4c(c3)C(=O)N(C3CCC(=O)NC3=O)C4)c2)C1 (stereo not shown) [Compound 161] | 300 | > 300 | – |
| O=C1CCC(N2Cc3ccc(CNC(=O)Nc4cncs4)cc3C2=O)C(=O)N1 (stereo not shown) [Compound 103] | 272 | > 300 | – |
